# Patent publication US12590091B2, “1H-pyrrolo[3,2-C]pyridine and 1H-pyrrolo[2,3-C]pyridine derivatives as TLR9 inhibitors for the treatment of fibrosis” (BRISTOL-MYERS SQUIBB COMPANY, priority 2020, dated 2026)
# Target: T1, human TLR8 (Homo sapiens, UniProt Q9NR97)
# T1 construct: host or cells: HEK-Blue cells
# T1 sequence (Q9NR97 27-1041): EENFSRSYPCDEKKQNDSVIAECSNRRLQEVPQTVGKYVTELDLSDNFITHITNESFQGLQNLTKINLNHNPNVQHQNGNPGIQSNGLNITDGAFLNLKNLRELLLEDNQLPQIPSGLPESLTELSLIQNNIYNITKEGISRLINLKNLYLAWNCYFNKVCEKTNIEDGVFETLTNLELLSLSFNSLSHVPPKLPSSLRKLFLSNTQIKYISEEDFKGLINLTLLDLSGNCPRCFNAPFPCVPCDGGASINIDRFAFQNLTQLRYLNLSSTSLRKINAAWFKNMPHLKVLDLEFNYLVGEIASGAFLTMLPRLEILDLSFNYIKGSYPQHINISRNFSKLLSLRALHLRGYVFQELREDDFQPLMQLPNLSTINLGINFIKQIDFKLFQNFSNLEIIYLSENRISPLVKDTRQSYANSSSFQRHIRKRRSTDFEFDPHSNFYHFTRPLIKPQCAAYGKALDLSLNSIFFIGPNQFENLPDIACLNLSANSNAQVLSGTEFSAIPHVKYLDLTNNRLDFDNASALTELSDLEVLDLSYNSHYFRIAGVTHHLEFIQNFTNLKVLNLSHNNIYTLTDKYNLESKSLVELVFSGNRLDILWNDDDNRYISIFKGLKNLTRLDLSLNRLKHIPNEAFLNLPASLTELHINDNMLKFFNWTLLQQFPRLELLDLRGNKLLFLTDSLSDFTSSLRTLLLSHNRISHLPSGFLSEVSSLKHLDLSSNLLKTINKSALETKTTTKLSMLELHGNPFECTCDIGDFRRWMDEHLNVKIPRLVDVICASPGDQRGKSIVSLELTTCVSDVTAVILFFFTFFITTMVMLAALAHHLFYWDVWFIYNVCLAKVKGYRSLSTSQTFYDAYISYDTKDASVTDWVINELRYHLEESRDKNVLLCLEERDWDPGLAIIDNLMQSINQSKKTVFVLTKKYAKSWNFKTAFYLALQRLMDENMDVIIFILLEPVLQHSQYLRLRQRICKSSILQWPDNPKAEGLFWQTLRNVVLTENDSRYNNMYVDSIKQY
# Test: TLR8 inhibition reporter assay (HEK-Blue cells, SEAP reporter)
# Type: cell-based
# Conditions: HEK-Blue cells overexpressing human TLR8, stimulated with R848 15.9 μM, 22 hour incubation
# In short: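 Agonists used: gardiquimod 7.5 μM (TLR7), R848 15.9 μM (TLR8), ODN2006 5 nM (TLR9), added after 30 min room-temperature compound pre-treatment (0.05 nM–50 μM) of receptor-overexpressing HEK-Blue cells. SEAP reporter (NF-κB/AP-1 driven) read after 22 h at 37 °C; inhibition scaled between agonist+DMSO and reference-inhibitor wells.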
row,SMILES,IC50 [µM]
1,"CCOC(=O)N1CCC(N2CCC(c3cc4c(cn3)cc(-c3ccc(OC)c(OC)c3)n4C)CC2)CC1 [Example 7, Ethyl 4-(2-(3,4-dimethoxyphenyl)-1-methyl-1H-pyrrolo[3,2-c]pyridin-6-yl)-[1,4′-bipiperidine]-1′-carboxylate]",5.2
2,"Cc1nc(-c2cc(F)c(N3CCN4CCCC4C3)cc2F)cc2c1cc(-c1ccc(S(C)(=O)=O)cc1)n2C (stereo not drawn) [Example 97, 6-(2,5-difluoro-4-(hexahydropyrrolo[1,2-a]pyrazin-2(1H)-yl)phenyl)-1,4-dimethyl-2-(4-(methylsulfonyl)phenyl)-1H-pyrrolo[3,2-c]pyridine]",5.3
3,"Cc1nc(-c2cc(F)c(C3(O)CCN(CC(C)C)CC3)cc2F)cc2c1cc(-c1ccc(S(C)(=O)=O)cc1)n2C [Example 94, 4-(4-(1,4-dimethyl-2-(4-(methylsulfonyl)phenyl)-1H-pyrrolo[3,2-c]pyridin-6-yl)-2,5-difluorophenyl)-1-isobutylpiperidin-4-ol]",2.5
4,"COCCN1CCC(O)(c2cc(F)c(-c3cc4c(cc(-c5ccc(S(C)(=O)=O)cc5)n4C)c(C)n3)cc2F)CC1 [Example 95, 4-(4-(1,4-dimethyl-2-(4-(methylsulfonyl)phenyl)-1H-pyrrolo[3,2-c]pyridin-6-yl)-2,5-difluorophenyl)-1-(2-methoxyethyl)piperidin-4-ol]",2.7
5,"Cc1nc(-c2ccc(C3(O)CC4CCC(C3)N4CC(C)C)c(F)c2)cc2c1cc(-c1ccc(S(C)(=O)=O)cc1)n2C [Example 91, (1R,3r,5S)-3-(4-(1,4-dimethyl-2-(4-(methylsulfonyl)phenyl)-1H-pyrrolo[3,2-c]pyridin-6-yl)-2-fluorophenyl)-8-isobutyl-8-azabicyclo[3.2.1]octan-3-ol]",1.3
6,"COc1ccc(-c2cc3cnc(C4CCN(Cc5ccc(C)nc5)CC4)cc3n2C)cc1OC [Example 8, 2-(3,4-Dimethoxyphenyl)-1-methyl-6-(1-((6-methylpyridin-3-yl)methyl)piperidin-4-yl)-1H-pyrrolo[3,2-c]pyridine]",25.9
7,"COCCN1CCC(O)(c2ccc(-c3cc4c(cc(-c5ccc(S(C)(=O)=O)cc5)n4C)c(C)n3)cc2F)CC1 [Example 92, 4-(4-(1,4-dimethyl-2-(4-(methylsulfonyl)phenyl)-1H-pyrrolo[3,2-c]pyridin-6-yl)-2-fluorophenyl)-1-(2-methoxyethyl)piperidin-4-ol]",> 50
8,"Cc1nc(-c2ccc(C3(O)CCN(C4CC4)CC3)c(F)c2)cc2c1cc(-c1ccc(S(C)(=O)=O)cc1)n2C [Example 93, 1-cyclopropyl-4-(4-(1,4-dimethyl-2-(4-(methylsulfonyl)phenyl)-1H-pyrrolo[3,2-c]pyridin-6-yl)-2-fluorophenyl)piperidin-4-ol]",> 50
9,"Cc1nc(-c2cc(F)c(N3CCN4CCCC4C3)c(F)c2)cc2c1cc(-c1ccc(S(C)(=O)=O)cc1)n2C (stereo not drawn) [Example 98, 6-(3,5-difluoro-4-(hexahydropyrrolo[1,2-a]pyrazin-2(1H)-yl)phenyl)-1,4-dimethyl-2-(4-(methylsulfonyl)phenyl)-1H-pyrrolo[3,2-c]pyridine]",> 50
10,"Cc1nc(-c2cc(F)c(C3(O)CCN(C4CC4)CC3)cc2F)cc2c1cc(-c1ccc(S(C)(=O)=O)cc1)n2C [Example 96, 1-cyclopropyl-4-(4-(1,4-dimethyl-2-(4-(methylsulfonyl)phenyl)-1H-pyrrolo[3,2-c]pyridin-6-yl)-2,5-difluorophenyl)piperidin-4-ol]",4.1
11,"Cc1nc(-c2ccc(C3(O)CCN(CC(C)C)CC3)c(F)c2)cc2c1cc(-c1ccc(S(C)(=O)=O)cc1)n2C [Example 90, 4-(4-(1,4-dimethyl-2-(4-(methylsulfonyl)phenyl)-1H-pyrrolo[3,2-c]pyridin-6-yl)-2-fluorophenyl)-1-isobutylpiperidin-4-ol]",22.1
12,"Cc1nc(-c2cc(F)c(N3CCN(C4CCOCC4)CC3)c(F)c2)cc2c1cc(-c1ccc(S(C)(=O)=O)cc1)n2C [Example 89, 6-(3,5-difluoro-4-(4-(tetrahydro-2H-pyran-4-yl)piperazin-1-yl)phenyl)-1,4-dimethyl-2-(4-(methylsulfonyl)phenyl)-1H-pyrrolo[3,2-c]pyridine]",> 50
